The values that follow come from patent US10519152B2, “Compounds and their use in treating cancer” (AstraZeneca AB, priority 2017, dated 2019).

For this assay, the target named is T1, Estrogen Receptor (ERα) in MCF-7 human ductal carcinoma breast cell line (Homo sapiens, UniProt P03372).
T1 construct: endogenous in cells; host or cells: MCF-7
T1 sequence (P03372 1-595): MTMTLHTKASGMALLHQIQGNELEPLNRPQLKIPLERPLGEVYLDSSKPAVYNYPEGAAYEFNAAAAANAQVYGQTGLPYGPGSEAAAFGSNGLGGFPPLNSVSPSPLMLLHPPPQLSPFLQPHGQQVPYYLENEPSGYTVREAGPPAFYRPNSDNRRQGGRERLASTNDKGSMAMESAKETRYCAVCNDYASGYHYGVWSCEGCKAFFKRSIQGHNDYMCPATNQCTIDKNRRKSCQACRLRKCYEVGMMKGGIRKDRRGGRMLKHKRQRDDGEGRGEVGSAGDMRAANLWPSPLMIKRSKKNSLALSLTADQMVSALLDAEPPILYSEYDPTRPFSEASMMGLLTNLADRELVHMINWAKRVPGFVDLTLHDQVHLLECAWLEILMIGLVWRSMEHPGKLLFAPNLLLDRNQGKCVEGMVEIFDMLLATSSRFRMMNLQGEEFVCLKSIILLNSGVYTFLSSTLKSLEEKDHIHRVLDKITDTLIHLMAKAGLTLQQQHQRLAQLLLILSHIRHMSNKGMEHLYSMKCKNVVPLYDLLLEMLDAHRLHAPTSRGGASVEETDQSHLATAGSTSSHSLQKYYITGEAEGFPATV
The experiment in a line: MCF-7 ER degradation assay (cell based immuno-fluorescence). The following applies: MCF-7 cells; for ER degradation ≥ 90% at 0.3 μM: ER degradation by fulvestrant at 0.3 μM is defined as 100%; for DC50: 18-22 hours incubation, 50% reduction of ERα expression, single experiment or average of two or more, read-out: MCF-7 ER degradation IC50. The method, boiled down:
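MCF-7 human ductal carcinoma breast cells were seeded at 3.75×10^4 cells per mL (40 μL per well) in 384 well plates with phenol red free DMEM containing 2 mM L-Glutamine and 5% (v/v) Charcoal/Dextran treated foetal calf serum. After overnight culture, compounds were acoustically dispensed, incubated 18-22 hours, then cells were formaldehyde-fixed and immunostained for ERα.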

For `Cc1ncsc1-c1ccc(CNC(=O)[C@@H]2C[C@@H](O)CN2C(=O)[C@@H](NC(=O)CCCCOCCCCCOc2cc(F)c([C@@H]3c4[nH]c5ccccc5c4C[C@@H](C)N3CC(C)(C)F)c(F)c2)C(C)(C)C)cc1` [Example 113, (2S,4R)-1-((S)-2-(5-((5-(3,5-Difluoro-4-((1R,3R)-2-(2-fluoro-2-methylpropyl)-3-methyl-2,3,4,9-tetrahydro-1H-pyrido[3,4-b]indol-1-yl)phenoxy)pentyl)oxy)pentanamido)-3,3-dimethylbutanoyl)-4-hydroxy-N-(4-(4-methylthiazol-5-yl)benzyl)pyrrolidine-2-carboxamide], the “ER degradation ≥ 90% at 0.3 μM” value is on record as “••” and the DC50 is 0.9 nM.

Regarding `Cc1ncsc1-c1ccc(CNC(=O)[C@@H]2C[C@@H](O)CN2C(=O)[C@@H](NC(=O)COCCc2ccc(COc3cc(F)c([C@@H]4c5[nH]c6ccccc6c5C[C@@H](C)N4CC(C)(C)F)c(F)c3)cc2)C(C)(C)C)cc1` [Example 53, (2S,4R)-1-((S)-2-(2-(4-((3,5-difluoro-4-((1R,3R)-2-(2-fluoro-2-methylpropyl)-3-methyl-2,3,4,9-tetrahydro-1H-pyrido[3,4-b]indol-1-yl)phenoxy)methyl)phenethoxy)acetamido)-3,3-dimethylbutanoyl)-4-hydroxy-N-(4-(4-methylthiazol-5-yl)benzyl)pyrrolidine-2-carboxamide], the “ER degradation ≥ 90% at 0.3 μM” value is reported as “•” and the DC50 turned out to be 3.5 nM.

`Cc1ncsc1-c1ccc(CNC(=O)[C@@H]2C[C@@H](O)CN2C(=O)[C@@H](NC(=O)CCCCCOCCCCOc2cc(F)c([C@@H]3c4[nH]c5ccccc5c4C[C@@H](C)N3CC(C)(C)F)c(F)c2)C(C)(C)C)cc1` [Example 109, (2S,4R)-1-((S)-2-(6-(4-(3,5-difluoro-4-((1R,3R)-2-(2-fluoro-2-methylpropyl)-3-methyl-2,3,49-tetrahydro-1H-pyrido[3,4-b]indol-1-yl)phenoxy)butoxy)hexanamido)-3,3-dimethylbutanoyl)-4-hydroxy-N-(4-(4-methylthiazol-5-yl)benzyl)pyrrolidine-2-carboxamide]: the “ER degradation ≥ 90% at 0.3 μM” value is recorded as “••” and the DC50 worked out at 1 nM.

In the case of `Cc1ncsc1-c1ccc(CNC(=O)[C@@H]2C[C@@H](O)CN2C(=O)[C@@H](NC(=O)COCCCCCCOc2cc(F)c([C@@H]3c4[nH]c5ccccc5c4C[C@@H](C)N3CC(C)(C)F)c(F)c2)C(C)(C)C)cc1` [Example 51, (2S,4R)-1-((S)-2-(2-((6-(3,5-difluoro-4-((1R,3R)-2-(2-fluoro-2-methylpropyl)-3-methyl-2,3,4,9-tetrahydro-1H-pyrido[3,4-b]indol-1-yl)phenoxy)hexyl)oxy)acetamido)-3,3-dimethylbutanoyl)-4-hydroxy-N-(4-(4-methylthiazol-5-yl)benzyl)pyrrolidine-2-carboxamide], the “ER degradation ≥ 90% at 0.3 μM” value is recorded as “•” and the DC50 is 6.8 nM.

Consider `Cc1ncsc1-c1ccc([C@H](C)NC(=O)[C@@H]2C[C@@H](O)CN2C(=O)[C@@H](NC(=O)COCCCOCCCCCOc2cc(F)c([C@@H]3c4[nH]c5ccccc5c4C[C@@H](C)N3CC(C)(C)F)c(F)c2)C(C)(C)C)cc1` [Example 137, (2S,4R)-1-((S)-2-(2-(3-((5-(3,5-Difluoro-4-((R,3R)-2-(2-fluoro-2-methylpropyl)-3-methyl-2,3,4,9-tetrahydro-1H-pyrido[3,4-b]indol-1-yl)phenoxy)pentyl)oxy)propoxy)acetamido)-3,3-dimethylbutanoyl)-4-hydroxy-N—((S)-1-(4-(4-methylthiazol-5-yl)phenyl)ethyl)pyrrolidine-2-carboxamide], for which the “ER degradation ≥ 90% at 0.3 μM” value is given as “••” and the DC50 was determined as 0.8 nM.

For the compound `Cc1ncsc1-c1ccc(CNC(=O)[C@@H]2C[C@@H](O)CN2C(=O)[C@@H](NC(=O)COCCOCCCCCOc2cc(F)c([C@@H]3c4[nH]c5ccccc5c4C[C@@H](C)N3CC(C)(F)F)c(F)c2)C(C)(C)C)cc1` [Example 166, (2S,4R)-1-((S)-2-(2-(2-((5-(4-((1R,3R)-2-(2,2-Difluoropropyl)-3-methyl-2,3,4,9-tetrahydro-1H-pyrido[3,4-b]indol-1-yl)-3,5-difluorophenoxy)pentyl)oxy)ethoxy)acetamido)-3,3-dimethylbutanoyl)-4-hydroxy-N-(4-(4-methylthiazol-5-yl)benzyl)pyrrolidine-2-carboxamide], the “ER degradation ≥ 90% at 0.3 μM” value is on record as “••” and the DC50 was 0.8 nM.

Turning to `Cc1ncsc1-c1ccc(CNC(=O)[C@@H]2C[C@@H](O)CN2C(=O)[C@@H](NC(=O)COCCCCCOc2cc(F)c([C@@H]3c4[nH]c5ccccc5c4C[C@@H](C)N3CC(C)(C)F)c(F)c2)C(C)(C)C)cc1` [Example 18, (2S,4R)-1-((S)-2-(2-((5-(3,5-Difluoro-4-((1R,3R)-2-(2-fluoro-2-methylpropyl)-3-methyl-2,3,4,9-tetrahydro-1H-pyrido[3,4-b]indol-1-yl)phenoxy)pentyl)oxy)acetamido)-3,3-dimethylbutanoyl)-4-hydroxy-N-(4-(4-methylthiazol-5-yl)benzyl)pyrrolidine-2-carboxamide], the “ER degradation ≥ 90% at 0.3 μM” value was “•” and the DC50 is 1 nM.

Turning to `Cc1ncsc1-c1ccc(CNC(=O)[C@@H]2C[C@@H](O)CN2C(=O)[C@@H](NC(=O)CCCCCCOCCCOc2cc(F)c([C@@H]3c4[nH]c5ccccc5c4C[C@@H](C)N3CC(C)(C)F)c(F)c2)C(C)(C)C)cc1` [Example 110, (2S,4R)-1-((S)-2-(7-(3-(3,5-difluoro-4-((1R,3R)-2-(2-fluoro-2-methylpropyl)-3-methyl-2,3,4,9-tetrahydro-1H-pyrido[3,4-b]indol-1-yl)phenoxy)propoxy)heptanamido)-3,3-dimethylbutanoyl)-4-hydroxy-N-(4-(4-methylthiazol-5-yl)benzyl)pyrrolidine-2-carboxamide], the “ER degradation ≥ 90% at 0.3 μM” value was “••” and the DC50 turned out to be 1.7 nM.

In the case of `Cc1ncsc1-c1ccc(CNC(=O)[C@@H]2C[C@@H](O)CN2C(=O)[C@@H](NC(=O)COCCCCCCOc2ccc([C@@H]3c4[nH]c5ccccc5c4C[C@@H](C)N3CC(F)F)nc2)C(C)(C)C)cc1` [Example 8, (2S,4R)-1-((S)-2-(2-((6-((6-((1S,3R)-2-(2,2-Difluoroethyl)-3-methyl-2,3,4,9-tetrahydro-1H-pyrido[3,4-b]indol-1-yl)pyridin-3-yl)oxy)hexyl)oxy)acetamido)-3,3-dimethylbutanoyl)-4-hydroxy-N-(4-(4-methylthiazol-5-yl)benzyl)pyrrolidine-2-carboxamide], the “ER degradation ≥ 90% at 0.3 μM” value was “••” and the DC50 turned out to be 9.4 nM.

Turning to `Cc1ncsc1-c1ccc(CNC(=O)[C@@H]2C[C@@H](O)CN2C(=O)[C@@H](NC(=O)CCCCCCCOCCOc2cc(F)c([C@@H]3c4[nH]c5ccccc5c4C[C@@H](C)N3CC(C)(C)F)c(F)c2)C(C)(C)C)cc1` [Example 111, (2S,4R)-1-((S)-2-(8-(2-(3,5-Difluoro-4-((1R,3R)-2-(2-fluoro-2-methylpropyl)-3-methyl-2,3,4,9-tetrahydro-1H-pyrido[3,4-b]indol-1-yl)phenoxy)ethoxy)octanamido)-3,3-dimethylbutanoyl)-4-hydroxy-N-(4-(4-methylthiazol-5-yl)benzyl)pyrrolidine-2-carboxamide], the “ER degradation ≥ 90% at 0.3 μM” value was “•” and the DC50 is 0.8 nM.

Turning to `Cc1ncsc1-c1ccc([C@H](C)NC(=O)[C@@H]2C[C@@H](O)CN2C(=O)[C@@H](NC(=O)COCCCCCOc2cc(F)c([C@@H]3c4[nH]c5ccccc5c4C[C@@H](C)N3CC(C)(C)F)c(F)c2)C(C)(C)C)cc1` [Example 28, (2S,4R)-1-((S)-2-(2-((5-(3,5-Difluoro-4-((1R,3R)-2-(2-fluoro-2-methylpropyl)-3-methyl-2,3,4,9-tetrahydro-1H-pyrido[3,4-b]indol-1-yl)phenoxy)pentyl)oxy)acetamido)-3,3-dimethylbutanoyl)-4-hydroxy-N—((S)-1-(4-(4-methylthiazol-5-yl)phenyl)ethyl)pyrrolidine-2-carboxamide], the “ER degradation ≥ 90% at 0.3 μM” value was “•” and the DC50 was determined as 0.8 nM.

As for `Cc1ncsc1-c1ccc(CNC(=O)[C@@H]2C[C@@H](O)CN2C(=O)[C@@H](NC(=O)CCCOc2ccc(COc3cc(F)c([C@@H]4c5[nH]c6ccccc6c5C[C@@H](C)N4CC(C)(C)F)c(F)c3)nc2)C(C)(C)C)cc1` [Example 161, (2S,4R)-1-((S)-2-(4-((6-((3,5-Difluoro-4-((1R,3R)-2-(2-fluoro-2-methylpropyl)-3-methyl-2,3,4,9-tetrahydro-1H-pyrido[3,4-b]indol-1-yl)phenoxy)methyl)pyridin-3-yl)oxy)butanamido)-3,3-dimethylbutanoyl)-4-hydroxy-N-(4-(4-methylthiazol-5-yl)benzyl)pyrrolidine-2-carboxamide], the “ER degradation ≥ 90% at 0.3 μM” value was “•” and the DC50 was 1.2 nM.
